# Experimental data reported in ChEMBL document CHEMBL1157538, “Discovery of a potent, selective, and orally bioavailable c-Met inhibitor: 1-(2-hydroxy-2-methylpropyl)-N-(5-(7-methoxyquinolin-4-yloxy)pyridin-2-yl)-5-methyl-3-oxo-2-phenyl-2,3-dihydro-1H-pyrazole-4-carboxamide (AMG 458)” (J Med Chem, 2008).
# Columns and labels:
# [1] = Half life in rat; type: ADME, organism-based; conditions: in vivo
# [2] = Clearance in rat; type: ADME, organism-based; conditions: in vivo
# [3] = Intrinsic clearance in Sprague-Dawley rat liver microsome; type: ADME; conditions: liver microsomes
# [4] = Oral bioavailability in rat; type: ADME, organism-based; conditions: in vivo
# [5] = Intrinsic clearance in BALB/c mouse liver microsome; type: ADME; conditions: liver microsomes
# [6] = Intrinsic clearance in human liver microsome; type: ADME; conditions: liver microsomes
# [7] = target: T1, Hepatocyte growth factor receptor (Homo sapiens, UniProt P08581); assay: Inhibition of HGF-mediated c-Met phosphorylation in human PC3 cells; type: cell-based, PC-3
# [8] = target: T1, Hepatocyte growth factor receptor; assay: Inhibition of c-Met phosphorylation by HTRF assay
half-life [1] [h],clearance [2] [mL/min/kg],microsomal CLint [3] [µL/min/mg],bioavailability [4] [%],microsomal CLint [5] [µL/min/mg],microsomal CLint [6] [µL/min/mg],IC50 [7] [nM],Ki [8] [nM],SMILES
1.9,< 3.33,< 60,> 50,< 45,< 55,–,–,COc1ccc2c(Oc3ccc(NC(=O)c4c(C)n(C[C@H](C)O)n(-c5ccccc5)c4=O)cc3F)ccnc2c1
–,–,–,–,–,–,50,2.7,COc1ccc2c(Oc3ccc(NC(=O)c4c(C)n(CC(C)(C)O)n(-c5ccccc5)c4=O)cc3F)ccnc2c1
